# From US20250059175A1, “Mutant Pi3k-Alpha Inhibitors And Their Use As Pharmaceuticals” (Prelude Therapeutics Incorporated, priority 2023, published 2025)
# Legend:
# [1] = system: phosphorylation of AKT on Ser473 (PI3K pathway) in SKBR3 (PIK3CA WT) cell line; test: PI3K pathway activation assay (pAKT Ser473 HTRF), SKBR3 cells; format: cell-based; conditions: Homo sapiens, SK-BR-3, 2 h, two hours of treatment
# Protocol: (§1) The inhibitory activity of the compounds of the disclosure was evaluated by measuring phosphorylation of AKT on Ser473 as a readout of the PI3K pathway using HTRF (CisBio catalog number: 64AKSPE). These studies were conducted in the T-47D (heterozygous PIK3CA H1047R) and SKBR3 (PIK3CA WT) cell lines. Cells were maintained in a 37° C. incubator at 5% CO2 in the following media: T-47D: RPMI 1640, ATCC© Modification (Gibco, A10491-01) supplemented with 10% v/v FBS (Gibco, 26140-079), 1% penicillin streptomycin (Gibco, 15140-122), and 7.4 ug/mL insulin (MilliporeSigma, I9278); SKBR3: McCoy's 5a (Modified) Medium (Gibco, 16600-082) supplemented with 10% v/v FBS (Gibco, 26140-079). Cells were seeded in 384-well plates at a density of 4,000 cells/well. Compounds dissolved in DMSO were added using a digital dispense (D300E, Tecan) 10-point serial dilution. After two hours of treatment, cells were lysed for thirty minutes and then incubated with detection reagents per HTRF kit material and manufacturer's instructions. Fluorescence signal was measured with a multimode plate reader (Envision 2105, Perkin Elmer). Fluorescent signal was normalized to background and DMSO controls to obtain percent inhibition/activity for each compound.
# [2] = system: phosphorylation of AKT on Ser473 (PI3K pathway) in T-47D (heterozygous PIK3CA H1047R) cell line; test: PI3K pathway activation assay (pAKT Ser473 HTRF), T-47D cells; format: cell-based; conditions: T-47D (heterozygous PIK3CA H1047R) cells, two hours of treatment, pAKT Ser473 HTRF; for IC50: Homo sapiens, T47D, 2 h, read-out: T47D pAKT IC50
# Protocol: as §1
SMILES,IC50 [1] [µM],IC50 [2] [µM],T47D pAKT IC50 [2]
"Cc1cc(C(C)Nc2ccc(F)nc2C(=O)O)nc(N2C(=O)OC[C@@H]2Cc2ccccc2)c1 (single isomer, unassigned) [Example 11]",> 10,< 0.1,
"Cc1cc(C(C)Nc2ccc(Cl)nc2C(=O)O)nc(N2C(=O)OC[C@@H]2Cc2ccccc2)c1 (single isomer, unassigned) [Example 12]",1 to 10,,++ ++
"Cc1cc(C(C)Nc2ccc(Br)nc2C(=O)O)nc(N2C(=O)OC[C@@H]2Cc2ccccc2)c1 (single isomer, unassigned) [Example 18]",> 10,< 0.1,
"Cc1cc([C@@H](C)Nc2ccc(Cl)nc2C(=O)O)nc(N2C(=O)OC[C@@H]2CC2CCC2)c1 [Example 47, 6-Chloro-3-(((R)-1-(6-((S)-4-(cyclobutylmethyl)-2-oxooxazolidin-3-yl)-4-methylpyridin-2-yl)ethyl)amino)picolinic acid]",,< 0.1,
"Cc1cc([C@@H](C)Nc2ccc(Cl)nc2C(=O)O)nc(N2C(=O)OC[C@@H]2Cc2c[nH]c3ccccc23)c1 [Example 50, 3-(((R)-1-(6-((S)-4-((1H-Indol-3-yl)methyl)-2-oxooxazolidin-3-yl)-4-methylpyridin-2-yl)ethyl)amino)-6-chloropicolinic acid]",,0.1 to 1,
"Cc1cc([C@@H](C)Nc2ccc(Cl)nc2C(=O)O)nc(N2C(=O)OC[C@@H]2Cc2ccc(C(=O)N(C)C)cc2)c1 [Example 51, 6-Chloro-3-(((R)-1-(6-((S)-4-(4-(dimethylcarbamoyl)benzyl)-2-oxooxazolidin-3-yl)-4-methylpyridin-2-yl)ethyl)amino)picolinic acid]",,0.1 to 1,
"CON(C)C(=O)c1ccc(C[C@H]2COC(=O)N2c2cc(C)cc([C@@H](C)Nc3ccc(Cl)nc3C(=O)O)n2)cc1 [Example 52, 6-Chloro-3-(((R)-1-(6-((S)-4-(4-(methoxy(methyl)carbamoyl)benzyl)-2-oxooxazolidin-3-yl)-4-methylpyridin-2-yl)ethyl)amino)picolinic acid]",,0.1 to 1,
"Cc1cc([C@@H](C)Nc2ccc(Cl)nc2C(=O)O)nc(N2C(=O)OC[C@@H]2CCc2ccccc2)c1 [Example 53, 6-Chloro-3-(((R)-1-(4-methyl-6-((S)-2-oxo-4-phenethyloxazolidin-3-yl)pyridin-2-yl)ethyl)amino)picolinic acid]",,0.1 to 1,

# Continued, values first:
IC50 [1] [µM],IC50 [2] [µM],T47D pAKT IC50 [2],SMILES
,0.1 to 1,,"Cc1cc([C@@H](C)Nc2ccc(Cl)nc2C(=O)O)nc(N2C(=O)OC[C@]2(C)Cc2ccccc2)c1 [Example 54, 3-(((R)-1-(6-((S)-4-Benzyl-4-methyl-2-oxooxazolidin-3-yl)-4-methylpyridin-2-yl)ethyl)amino)-6-chloropicolinic acid]"
,1 to 10,,"Cc1cc([C@@H](C)Nc2ccc(Cl)nc2C(=O)O)nc(N2C(=O)CCC2Cc2ccccc2)c1 (stereo partly drawn) [Example 55, 3-(((1R)-1-(6-(2-benzyl-5-oxopyrrolidin-1-yl)-4-methylpyridin-2-yl)ethyl)amino)-6-chloropicolinic acid]"
,0.1 to 1,,"Cc1cc([C@@H](C)Nc2ccc(Cl)nc2C(=O)O)nc(N2C(=O)OCC[C@@H]2Cc2ccccc2)c1 [Example 56, 3-(((R)-1-(6-((S)-4-Benzyl-2-oxo-1,3-oxazinan-3-yl)-4-methylpyridin-2-yl)ethyl)amino)-6-chloropicolinic acid]"
,0.1 to 1,,"Cc1cc([C@@H](C)Nc2ccc(Cl)nc2C(=O)O)nc(N2C(=O)COC[C@@H]2Cc2ccccc2)c1 [Example 57, 3-(((R)-1-(6-((S)-3-Benzyl-5-oxomorpholino)-4-methylpyridin-2-yl)ethyl)amino)-6-chloropicolinic acid]"
,0.1 to 1,,"Cc1cccc(C[C@H]2COC(=O)N2c2cc(F)cc([C@@H](C)Nc3ccc(Cl)nc3C(=O)O)c2)c1 [Example 62, 6-Chloro-3-(((R)-1-(3-fluoro-5-((S)-4-(3-methylbenzyl)-2-oxooxazolidin-3-yl)phenyl)ethyl)amino)picolinic acid]"
